Literature values in patent US20010008638A1, “N[…] LEAST ONE […] AT LEAST ONE ANTI-ESTROGEN COMPOUND IN A TIME-RELEASE DOSAGE FORM” (priority 1999, published 2001).

Details: fold more potent than testosterone

For `C[C@]12CCC(=O)C[C@@H]1CC[C@@H]1[C@@H]2CC[C@]2(C)[C@@H](O)CC[C@@H]12` [DHT, dihydrotestosterone], the “potency relative to testosterone” value is given as about 10 times.
